# Measured values reported in patent US6485953B1, “Enzyme capable of hydorlyzing plaque, microorganism producing the same, and a composition comprising the same” (Lifenza Co. Ltd., priority 1999, dated 2002).
# How the values were obtained:
# [1] = test system: dextranase activity of DXAMase; test: Stability test: dextranase activity of DXAMase in presence of enzyme inhibitors and mouthwash chemicals; type: biochemical, Lipomyces starkeyi KSM 22
# Protocol: Dextranase activity is determined by measuring the amount of isomaltose produced by the reaction of an enzyme solution in a buffer solution containing 2% dextran for 15 min at 37° C. Dextranase 1 IU is defined as the amount of the enzyme that produces 1 μmol of isomaltose when reaction is carried out by using dextran as a substrate for 1 min at 37° C.
# (§1) To test the stabilization of dextranase and amylase activities of DXAMase by chemicals comprising mouthwash solution, the enzyme activity was measured in the presence of the enzyme inhibitors and chemicals in the mouthwash solutions in Table 2. In 1 mL of each chemical solution, 5 IU of DXAMase was added and reacted for 5 min at 37° C. Reaction was further carried out by adding 2% dextran or starch of an equal volume.
# [2] = test system: amylase activity of DXAMase; test: Stability test: amylase activity of DXAMase in presence of enzyme inhibitors and mouthwash chemicals; type: biochemical, Lipomyces starkeyi KSM 22
# Protocol: Amylase activity is measured by reacting the enzyme solution in a buffer solution containing 2% starch for 15 min at 37° C.
# as §1
# [3] = inhibitor concentration 10 mM, 5 IU DXAMase, 5 min at 37° C.
smiles,measurement,setting,value
[H]/N=C(\N/C(=N/[H])NCCCCCCNC(=N)NC(=N)Nc1ccc(Cl)cc1)Nc1ccc(Cl)cc1 [Chlorhexydine],"effect on enzymatic activity of DXAMase (dextranase and amylase), in words","[1]; 5 IU DXAMase in 1 mL chemical solution, 5 min at 37° C.",did not decrease
same,Relative activity (%) Dextranase,[1]; inhibitor concentration 0.01%,98%
same,Relative activity (%) Dextranase,[1]; inhibitor concentration 0.02%,98%
same,Relative activity (%) Dextranase,[1]; inhibitor concentration 0.05%,97%
same,Relative activity (%) Dextranase,[1]; inhibitor concentration 0.1%,93%
same,Relative activity (%) Amylase,[2]; inhibitor concentration 0.01%,98%
same,Relative activity (%) Amylase,[2]; inhibitor concentration 0.02%,97%
same,Relative activity (%) Amylase,[2]; inhibitor concentration 0.05%,97%
same,Relative activity (%) Amylase,[2]; inhibitor concentration 0.1%,96%
O=C(O)CN(CCN(CC(=O)O)CC(=O)O)CC(=O)O [EDTA],Relative activity (%) Dextranase,[1]; [3],100%
same,Relative activity (%) Amylase,[2]; [3],100%
CCO [Ethanol],Relative activity (%) Dextranase,[1]; inhibitor concentration 1%,99%
same,Relative activity (%) Dextranase,[1]; inhibitor concentration 5%,98%
same,Relative activity (%) Dextranase,[1]; inhibitor concentration 10%,98%
same,Relative activity (%) Dextranase,[1]; inhibitor concentration 20%,97%
same,Relative activity (%) Amylase,[2]; inhibitor concentration 1%,100%
same,Relative activity (%) Amylase,[2]; inhibitor concentration 5%,98%
same,Relative activity (%) Amylase,[2]; inhibitor concentration 10%,97%
same,Relative activity (%) Amylase,[2]; inhibitor concentration 20%,97%
F [Fluoride],Relative activity (%) Dextranase,[1]; inhibitor concentration 0.05%,94%
same,Relative activity (%) Amylase,[2]; inhibitor concentration 0.05%,91%
CC(O)CO (centres unmarked) [Propylene glycol],Relative activity (%) Dextranase,[1]; inhibitor concentration 1%,100%
same,Relative activity (%) Amylase,[2]; inhibitor concentration 1%,100%
CCCCCCCCCCCCOS(=O)(=O)[O-].[Na+] [SDS],Relative activity (%) Dextranase,[1]; inhibitor concentration 0.05%,91%
same,Relative activity (%) Dextranase,[1]; inhibitor concentration 0.5%,85%
same,Relative activity (%) Amylase,[2]; inhibitor concentration 0.05%,92%
same,Relative activity (%) Amylase,[2]; inhibitor concentration 0.5%,68%
O=C([O-])c1ccccc1.[Na+] [Sodium benzoate],Relative activity (%) Dextranase,[1]; inhibitor concentration 1%,100%
same,Relative activity (%) Amylase,[2]; inhibitor concentration 1%,100%
